Measured values as given in PubChem BioAssay AID256 (DTP/NCI, 2004).
“And” between values parts separate entries of the source, which are not always exact repeats. Identical values can stand only once. Inconclusive results and toxic doses are left out. How the source made its calls: active means survival T/C of 150% or more; inactive means T/C below 125% in these data.

System: CD2F1 mice, L1210 leukemia ip, survival T/C
Assay: NCI In Vivo Anticancer Drug Screen. Data for tumor model L1210 Leukemia (intraperitoneal) in CD2F1 (CDF1) mice
Conditions: endpoint: mean survival time, higher = longer survival
Outline: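 Ratio T/C, where T is the treated-group value and C the vehicle-dosed control value, from mice implanted with a transplantable tumor.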

[1] = dose: 100.0 mg/kg/injection, schedule: Q01DX009 (ip), vehicle: saline with Tween-80
[2] = dose: 200.0 mg/kg/injection, schedule: Q01DX009 (ip), vehicle: saline with Tween-80
[3] = dose: 400.0 mg/kg/injection, schedule: Q01DX009 (ip), vehicle: saline with Tween-80
[4] = dose: 12.5 mg/kg/injection, schedule: Q01DX009 (ip), vehicle: saline with Tween-80

Measured: T/C

NC(=O)c1csc(C2OC(COP(=O)(O)O)C(O)C2O)n1 (stereo unspecified)
active: dose: 200.0 mg/kg/injection, schedule: Q01DX005 (ip), vehicle: water 259 % of control | dose: 400.0 mg/kg/injection, schedule: Q01DX005 (ip), vehicle: water 155 % of control and 183 % of control | dose: 600.0 mg/kg/injection, schedule: Q01DX005 (ip), vehicle: water 160 % of control | dose: 800.0 mg/kg/injection, schedule: Q01DX005 (ip), vehicle: water 196 % of control

O=P(O)(O)CCc1ccccc1
inactive: dose: 50.0 mg/kg/injection, schedule: Q04DX003 (ip), vehicle: saline 95 % of control | dose: 100.0 mg/kg/injection, schedule: Q04DX003 (ip), vehicle: saline 90 % of control | dose: 200.0 mg/kg/injection, schedule: Q04DX003 (ip), vehicle: saline 96 % of control

O=C(Nc1ccccc1[N+](=O)[O-])Oc1ccccc1
inactive: dose: 75.0 mg/kg/injection, schedule: Q04DX002 (ip), vehicle: saline with Tween-80 96 % of control | dose: 150.0 mg/kg/injection, schedule: Q04DX002 (ip), vehicle: saline with Tween-80 96 % of control | dose: 300.0 mg/kg/injection, schedule: Q04DX002 (ip), vehicle: saline with Tween-80 96 % of control

COC(=O)C(Br)C(OC)c1ccc(Cl)cc1 (stereo unspecified)
inactive: [1] 101 % of control | dose: 100.0 mg/kg/injection, schedule: Q04DX003 (ip), vehicle: saline sonified 100 % of control | [2] 95 % of control | dose: 200.0 mg/kg/injection, schedule: Q04DX003 (ip), vehicle: saline sonified 101 % of control | [3] 97 % of control | dose: 400.0 mg/kg/injection, schedule: Q04DX003 (ip), vehicle: saline sonified 95 % of control

CC(=O)CC(C)=O.CC(=O)CC(C)=O.CC(=O)CC(C)=O.[Fe]
inactive: dose: 6.25 mg/kg/injection, schedule: Q01DX009 (ip), vehicle: saline with Tween-80 93 % of control | [4] 97 % of control | dose: 12.5 mg/kg/injection, schedule: Q04DX003 (ip), vehicle: saline with Tween-80 102 % of control | dose: 25.0 mg/kg/injection, schedule: Q04DX003 (ip), vehicle: saline with Tween-80 98 % of control

O=C(Oc1ccc(OC(=O)c2ccccc2)c([N+](=O)[O-])c1)c1ccccc1
inactive: dose: 75.0 mg/kg/injection, schedule: Q01DX001 (ip), vehicle: saline 89 % of control | dose: 150.0 mg/kg/injection, schedule: Q01DX001 (ip), vehicle: saline 98 % of control | dose: 300.0 mg/kg/injection, schedule: Q01DX001 (ip), vehicle: saline 98 % of control

CNc1c(C)cc(C)c(NC)c1C
inactive: dose: 25.0 mg/kg/injection, schedule: Q04DX002 (ip), vehicle: saline with Tween-80 104 % of control | dose: 50.0 mg/kg/injection, schedule: Q04DX002 (ip), vehicle: saline with Tween-80 96 % of control | dose: 100.0 mg/kg/injection, schedule: Q04DX002 (ip), vehicle: saline with Tween-80 116 % of control

COB1OB(OC)OB(OC)O1
inactive: dose: 50.0 mg/kg/injection, schedule: Q01DX009 (ip), vehicle: saline with Tween-80 90 % of control | [1] 93 % of control | [2] 93 % of control | [3] 93 % of control

O=C(OCC(OC(=O)c1ccccc1)C1OC(c2ccccc2)OC1C(COC(=O)c1ccccc1)OC(=O)c1ccccc1)c1ccccc1 (stereo unspecified)
inactive: dose: 100.0 mg/kg/injection, schedule: Q04DX003 (ip), vehicle: saline with Tween-80 97 % of control | dose: 200.0 mg/kg/injection, schedule: Q04DX003 (ip), vehicle: saline with Tween-80 101 % of control | dose: 400.0 mg/kg/injection, schedule: Q04DX003 (ip), vehicle: saline with Tween-80 97 % of control

O=N[O-].[Co].[N-]=C=S.[NH2-].[NH2-].[NH2-].[NH2-]
inactive: [4] 115 % of control | dose: 25.0 mg/kg/injection, schedule: Q01DX009 (ip), vehicle: saline with Tween-80 115 % of control

COc1cc2ccc(C=O)cc2cc1OC
inactive: dose: 12.5 mg/kg/injection, schedule: Q01DX009 (ip), vehicle: Klucel (hydroxypropylcellulose) (HPC) 97 % of control | dose: 25.0 mg/kg/injection, schedule: Q01DX009 (ip), vehicle: Klucel (hydroxypropylcellulose) (HPC) 94 % of control | dose: 50.0 mg/kg/injection, schedule: Q01DX009 (ip), vehicle: Klucel (hydroxypropylcellulose) (HPC) 92 % of control | dose: 100.0 mg/kg/injection, schedule: Q01DX009 (ip), vehicle: Klucel (hydroxypropylcellulose) (HPC) 86 % of control | dose: 200.0 mg/kg/injection, schedule: Q01DX009 (ip), vehicle: Klucel (hydroxypropylcellulose) (HPC) 86 % of control | dose: 400.0 mg/kg/injection, schedule: Q01DX009 (ip), vehicle: Klucel (hydroxypropylcellulose) (HPC) 90 % of control
